According to paper PMC7291858, “An Enhanced Variant Designed From DLP4 Cationic Peptide Against Staphylococcus aureus CVCC 546” (Frontiers in Microbiology, 2020):
Converted amounts (≈) assume the structure as drawn. Peptide text beside a SMILES is read from it.

Tests used:
[1] = tested on: Staphylococcus aureus CVCC 546; assay: microbe, parasite or virus in culture; format: cell-based
Procedure, shortened: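 Each strain was exposed to two-fold serial dilutions of peptide in a plate assay. After incubation for 16∼20 h at 37°C, wells were scored for growth, and the MIC was recorded as the lowest concentration lacking visible growth.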

S. aureus CVCC 546 gDNA = assay: Gel retardation assay of gDNA binding; set-up: species or system Staphylococcus aureus; conditions: 10 min incubation, 1% agarose gel, ratios 0-5 (w/w)
Experimental: A gel retardation assay ([Zhao et al., 2019]) was utilized to analyze the binding of peptides to genomic DNA (gDNA) extracted from S. aureus CVCC 546 with TIANamp Bacteria DNA Kit (TIANGEN Biotech Co., Ltd., Beijing). The peptides were incubated for 10 min with gDNA at different ratios of 0–5.0 (w/w) and then loaded on 1% agarose gel for electrophoresis analysis.

S. aureus CVCC 546 = assay: Post-antibiotic effect (PAE); format: cell-based, Staphylococcus aureus; conditions: 2 × MIC, 2 h exposure, mean ± SD, n = 3
Experimental: The PAE was determined by exposing S. aureus cells to antimicrobial agent at 1×, 2×, or 4 × MIC for 2 h. After drug removal by dilution, the bacterial culture was incubated at 37°C and 250 rpm. An aliquot of samples (50 μL) were taken for CFU counts at different time intervals until bacterial cultures became turbid. Bacteria treated with DLP4 or vancomycin and left without treatment were used as the positive and blank controls, respectively. The PAE was calculated using the following formula: PAE = T − C, where T is the time for the CFU counts to increase by 10-fold above the count observed immediately after drug removal, and C is the corresponding time for the untreated control ([Oh et al., 2019]).

CC[C@H](C)[C@@H]1NC(=O)[C@@H]2CSSC[C@@H](C(=O)N[C@@H](CCCNC(=N)N)C(=O)N[C@@H](CCCCN)C(=O)O)NC(=O)[C@H](CC(N)=O)NC(=O)[C@@H]3CSSC[C@H](NC(=O)[C@H](C)NC(=O)[C@H](C)NC(=O)[C@H](Cc4c[nH]cn4)NC(=O)CNC(=O)[C@H](C(C)C)NC(=O)[C@H](CCCCN)NC(=O)[C@H](Cc4ccccc4)NC(=O)[C@@H]4CCCN4C(=O)[C@H](CO)NC(=O)[C@H](CC(C)C)NC(=O)[C@H](CC(C)C)NC(=O)[C@H](CC(=O)O)NC(=O)[C@@H](NC(=O)[C@@H](NC(=O)[C@H](C)N)[C@@H](C)O)CSSC[C@H](NC(=O)[C@H](Cc4c[nH]c5ccccc45)NC(=O)CNC(=O)CNC(=O)[C@H](CCCNC(=N)N)NC(=O)[C@H](CCCCN)NC(=O)CNC(=O)[C@H](CCCNC(=N)N)NC(=O)[C@H](C)NC1=O)C(=O)N[C@@H](CC(=O)O)C(=O)NCC(=O)N[C@@H](CCCNC(=N)N)C(=O)N[C@@H](C)C(=O)N[C@@H](C(C)C)C(=O)N3)C(=O)N[C@@H](C)C(=O)N[C@@H](C)C(=O)N[C@@H](Cc1c[nH]cn1)C(=O)N2 [ID13] (HELM PEPTIDE1{A.T.C.D.L.L.S.P.F.K.V.G.H.A.A.C.A.A.H.C.I.A.R.G.K.R.G.G.W.C.D.G.R.A.V.C.N.C.R.K}$PEPTIDE1,PEPTIDE1,3:R3-30:R3|PEPTIDE1,PEPTIDE1,16:R3-36:R3|PEPTIDE1,PEPTIDE1,20:R3-38:R3$$$V2.0; N-terminus and C-terminus assumed)
MIC ([1]; Table 1, – = no activity): 4 | MIC ([1]; microtiter, 37°C, 16∼20 h, triplicate): 0.95 µM (≈ 3.99 µg/mL) | peptide/gDNA mass ratio at which gDNA was completely blocked (S. aureus CVCC 546 gDNA): 5 | peptide/gDNA mass ratio at which migration of gDNA began to be retarded (S. aureus CVCC 546 gDNA): 1 | PAE (S. aureus CVCC 546): 12.78 ± 0.28 h
